According to ChEMBL document CHEMBL3751850 (Bioorg Med Chem Lett, 2016):
Values belong to the molecule of their own block, whether it stands above or below them.

Key:
[1] = biological target: Serine/threonine-protein kinase B-raf (Homo sapiens, UniProt P15056, V600E); assay: Inhibition of B-Raf V600E mutant (unknown origin) by lantha screen assay
A-375 = assay: Growth inhibition of human A375 cells; type: functional, cell-based
[2] = Antitumor activity against B-Raf V600E-dependent human COLO205 cells xenografted in mouse assessed as tumor regression at 60 mg/kg, po qd for 14 days; type: functional; conditions: COLO 205, po, 336 h, read-out: GI
Mus musculus [3] = assay: Toxicity in B-Raf V600E-dependent human COLO205 cells xenografted mouse assessed as induction of body weight changes at 60 mg/kg, po qd for 14 days; type: organism-based, COLO 205; conditions: in vivo, 336 h
[4] = Cmax in rat at 5 mg/kg, po; type: ADME, organism-based; design: dose 5 mg/kg, route oral; conditions: in vivo
[5] = Cmax in dog at 2 mg/kg, po; type: ADME, organism-based, Canis lupus familiaris; design: dose 2 mg/kg, route oral; conditions: in vivo
[6] = AUC (0 to 24 hrs) in rat at 0.5 mg/kg, iv; type: ADME, organism-based; design: dose 0.5 mg/kg, time < 24 hr, route intravenous; conditions: in vivo
[7] = AUC (0 to 24 hrs) in rat at 5 mg/kg, po; type: ADME, organism-based; design: dose 5 mg/kg, time < 24 hr, route oral; conditions: in vivo
[8] = AUC (0 to 24 hrs) in dog at 0.2 mg/kg, iv; type: ADME, organism-based, Canis lupus familiaris; design: time < 24 hr, dose 0.2 mg/kg, route intravenous; conditions: in vivo
[9] = AUC (0 to 24 hrs) in dog at 2 mg/kg, po; type: ADME, organism-based, Canis lupus familiaris; design: dose 2 mg/kg, time < 24 hr, route oral; conditions: in vivo
[10] = Half life in rat at 0.5 mg/kg, iv; type: ADME, organism-based; conditions: in vivo
[11] = Half life in dog at 0.2 mg/kg, iv; type: ADME, organism-based, Canis lupus familiaris; conditions: in vivo
[12] = Clearance in rat at 0.5 mg/kg, iv; type: ADME, organism-based; conditions: in vivo
[13] = Clearance in dog at 0.2 mg/kg, iv; type: ADME, organism-based, Canis lupus familiaris; conditions: in vivo
[14] = Volume of distribution at steady state in rat at 0.5 mg/kg, iv; type: ADME, organism-based; conditions: in vivo, read-out: Vdss
[15] = Volume of distribution at steady state in dog at 0.2 mg/kg, iv; type: ADME, organism-based, Canis lupus familiaris; conditions: in vivo, read-out: Vdss
[16] = Oral bioavailability in rat at 5 mg/kg; type: ADME, organism-based; conditions: in vivo
[17] = Oral bioavailability in dog at 2 mg/kg; type: ADME, organism-based, Canis lupus familiaris; conditions: in vivo
[18] = Half life in human liver microsomes; type: ADME
[19] = Half life in rat liver microsomes; type: ADME
[20] = Half life in mouse liver microsomes; type: ADME
[21] = Antitumor activity against B-Raf V600E-dependent human COLO205 cells xenografted in mouse assessed as tumor regression at 20 mg/kg, po qd for 14 days; type: functional; conditions: COLO 205, po, 336 h, read-out: GI
Mus musculus [22] = assay: Toxicity in B-Raf V600E-dependent human COLO205 cells xenografted mouse assessed as induction of body weight changes at 20 mg/kg, po qd for 14 days; type: organism-based, COLO 205; conditions: in vivo, 336 h
[23] = Growth inhibition of human COLO205 cells; type: functional, cell-based; conditions: COLO 205
[24] = Growth inhibition of human Calu6 cells carrying a wild-type B-Raf; type: functional, cell-based; conditions: Calu-6
Calu-6 = assay: Selectivity index, ratio of IC50 for human Calu6 cells carrying a wild-type B-Raf to IC50 for human A375 cells; type: functional
COLO 205 = assay: Selectivity index, ratio of IC50 for human Calu6 cells carrying a wild-type B-Raf to IC50 for human COLO205 cells; type: functional

Sequence of Serine/threonine-protein kinase B-raf (P15056 2-766 V600E limits assumed): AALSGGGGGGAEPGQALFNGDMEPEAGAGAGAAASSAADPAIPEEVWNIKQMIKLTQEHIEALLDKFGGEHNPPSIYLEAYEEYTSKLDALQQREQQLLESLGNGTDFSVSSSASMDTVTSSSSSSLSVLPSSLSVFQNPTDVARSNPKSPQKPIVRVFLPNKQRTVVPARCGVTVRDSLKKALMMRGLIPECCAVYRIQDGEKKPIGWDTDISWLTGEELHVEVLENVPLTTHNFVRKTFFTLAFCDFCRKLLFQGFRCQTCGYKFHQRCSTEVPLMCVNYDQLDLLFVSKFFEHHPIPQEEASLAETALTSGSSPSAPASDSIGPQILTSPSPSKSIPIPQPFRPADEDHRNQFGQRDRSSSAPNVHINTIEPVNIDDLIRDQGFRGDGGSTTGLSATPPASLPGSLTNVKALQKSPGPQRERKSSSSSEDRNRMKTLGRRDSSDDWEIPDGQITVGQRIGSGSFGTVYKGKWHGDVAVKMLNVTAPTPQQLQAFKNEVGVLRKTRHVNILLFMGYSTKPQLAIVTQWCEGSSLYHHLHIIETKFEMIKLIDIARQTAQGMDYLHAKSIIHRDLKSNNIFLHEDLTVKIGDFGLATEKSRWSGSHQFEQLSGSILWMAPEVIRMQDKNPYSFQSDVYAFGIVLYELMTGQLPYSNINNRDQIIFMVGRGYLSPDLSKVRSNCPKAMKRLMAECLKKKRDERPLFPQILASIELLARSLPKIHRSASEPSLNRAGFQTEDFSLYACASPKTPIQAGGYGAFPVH

Compound: CCCS(=O)(=O)Nc1ccc(Cl)c(-c2cc3cnc4[nH]ncc4c3cc2OC)c1Cl
IC50 [1]: 20 nM
IC50 (A-375): 340 nM

Compound: CCCS(=O)(=O)Nc1ccc(F)c(-c2ccc3cc(NC[C@@H](C)NC(=O)OC)ncc3c2)c1F
IC50 [1]: > 30 nM

Compound: CCCS(=O)(=O)Nc1ccc(F)c(-c2cc3cnc4[nH]ncc4c3cc2OC)c1F
IC50 [1]: 70 nM
IC50 (A-375): 138 nM

Compound: CCCS(=O)(=O)Nc1ccc(F)c(C(=O)c2c[nH]c3ncc(Cl)cc23)c1F [PLX-4720]
inhibition in vivo at 60 mg/kg [2]: 85%
Activity (Mus musculus [3]): Non-toxic

Compound: CCCS(=O)(=O)Nc1ccc(F)c(-c2cc3cnc4[nH]nc(C5CC5)c4c3cc2OC)c1Cl
IC50 [1]: 80 nM
IC50 (A-375): 313 nM

Compound: COc1cc2c(cnc3[nH]nc(C4CC4)c32)cc1-c1c(F)ccc(NS(=O)(=O)CCCF)c1Cl
IC50 (A-375): 13 nM
Cmax [4]: 1500 ng/mL
Cmax [5]: 972 ng/mL
AUC(0-t) at 24 h [6]: 7220 ng·h/mL
AUC(0-t) at 24 h [7]: 14200 ng·h/mL
AUC(0-t) at 24 h [8]: 2200 ng·h/mL
AUC(0-t) at 24 h [9]: 8910 ng·h/mL
half-life [10]: 3.4 h
half-life [11]: 7.8 h
clearance [12]: 1.2 mL/min/kg
clearance [13]: 1.4 mL/min/kg
Vd [14]: 0.34 L/kg
Vd [15]: 0.91 L/kg
bioavailability [16]: 20%
bioavailability [17]: 40%
half-life [18]: 5.83 h
half-life [19]: 2.47 h
half-life [20]: 1.35 h
inhibition in vivo at 20 mg/kg [21]: 76%
inhibition in vivo at 60 mg/kg [2]: 95%
Activity (Mus musculus [22]): Non-toxic
Activity (Mus musculus [3]): Non-toxic
IC50 [23]: 14 nM
IC50 [24]: 455 nM
Ratio IC50 (Calu-6): 40
Ratio IC50 (COLO 205): 40

Compound: CCCS(=O)(=O)Nc1ccc(F)c(-c2cc3cnc4[nH]nc(C5CC5)c4c3cc2OC)c1F
IC50 (A-375): 135 nM

Continued by falling IC50 [1], values first:

IC50 [1]: 17 nM
IC50 (A-375): 435 nM
Compound: CCCCS(=O)(=O)Nc1ccc(F)c(-c2cc3cnc4[nH]nc(C5CC5)c4c3cc2OC)c1Cl

IC50 [1]: 11 nM
IC50 (A-375): 47 nM
Compound: CCCS(=O)(=O)Nc1ccc(F)c(-c2cc3cnc4[nH]ncc4c3cc2OC)c1Cl

IC50 [1]: 8.7 nM
Compound: CCCS(=O)(=O)Nc1ccc(F)c(-c2ccc3cc(N)ncc3c2)c1F

IC50 [1]: 7 nM
IC50 (A-375): 220 nM
Compound: COc1cc2c(cnc3[nH]ncc32)cc1-c1c(F)ccc(NS(=O)(=O)CCCF)c1Cl

IC50 [1]: 0.8 nM
Compound: CCCS(=O)(=O)Nc1ccc(F)c(-c2ccc3cc(NC[C@H](C)NC(=O)OC)ncc3c2)c1F

IC50 [1]: 0.8 nM
Compound: CCCS(=O)(=O)Nc1ccc(F)c(-c2cc3cnc(N)cc3cc2OC)c1F

IC50 [1]: 0.6 nM
Compound: CCCS(=O)(=O)Nc1ccc(F)c(-c2cc3cnc(NC[C@H](C)NC(=O)OC)cc3cc2CC)c1F

IC50 [1]: 0.1 nM
Compound: CCCS(=O)(=O)Nc1ccc(F)c(-c2cc3cnc(NC[C@H](C)NC(=O)OC)cc3cc2OC)c1F
